This note sets out measurements from ChEMBL document CHEMBL1151216, “New constituents of Artemisia monosperma” (2004).

The subject of test [1] is Staphylococcus aureus. Nature of the test: Antibacterial activity against multidrug-resistant Staphylococcus aureus. In kind it is functional.
The subject of test [2] is Staphylococcus aureus. Nature of the test: Antibacterial activity against methicillin-resistant Staphylococcus aureus. The format is functional.

As a reminder, the MIC is the smallest concentration in the dilution series that meets the test's criterion for growth inhibition. Low values mean inhibition by little substance, high ones a need for much substance.

Bounds are passed on as bounds.

Regarding `C=C[C@@H](O)C#CC#C[C@H](O)CCO`, the MIC in test [1] and in test [2] was greater than 128 µg/mL in each case.
Take `CC1=C2[C@H](O)[C@H](C(C)C)CC[C@@]2(C)[C@H](O)C[C@H]1O` (relative stereo): the MIC in test [1] and in test [2] was greater than 128 µg/mL in each case.
